Assay results published in patent US6452005B1, “JAK-3 inhibitors for treating allergic disorders” (Parker Hughes Institute, priority 1999, dated 2002).
Read-outs that look alike come from different tables or passages of the source.

Legend:
recombinant JAK1 = biological target: T1, recombinant JAK1 (Homo sapiens, UniProt P23458); test: Immune complex kinase assay, recombinant JAK1; format: biochemical; conditions: FIG. 6C & D
T1 construct: made in house; host or cells: Sf21 insect cells, baculovirus
Text: (§1) Immune Complex Kinase Assays.

BTK = biological target: T2, BTK (Homo sapiens, UniProt Q06187); test: Immune complex kinase assay, BTK from Sf21 cells; format: biochemical; conditions: concentrations as high as 350 μM
T2 construct: made in house; host or cells: Sf21 insect cells, baculovirus
Text: as §1

[1] = Pharmacokinetic studies in mice; format: in vivo; conditions: for Cmax: 12.5 mg/kg bolus, read-out: estimated maximum plasma concentration (Cmax)
Experimental: FIGS. 13A and 13B are graphs showing pharmacokinetic features of the JAK3 inhibitor WHI-P131 in mice. Plasma concentration-time profiles of WHI-P131 in mice following intravenous [13A] or intraperitoneal [13B] administration (12.5 mg/kg; 5 mice per group). The pharmacokinetic parameters, including the central volume of distribution (Vc), estimated maximum plasma concentration (Cmax), elimination half-life (t½β), systemic exposure level/area under plasma concentration-time curve (AUC), and bioavailability (F), are shown in the insets.
Pharmacokinetic Studies: In pharmacokinetic studies, mice were injected either intravenously (i.v.) via the tail vein or intraperitoneally (i.p.) with a bolus dose of 300 μg/mouse (12.5 mg/kg =34 μmols/kg) of WHI-P131. Blood samples were obtained from the ocular venous plexus by retroorbital venupuncture prior to and at 3 minutes, 5 minutes, 10 minutes, 15 minutes, 30 minutes, 45 minutes and 1 hour, 2 hours, 4 hours and 8 hours a administration of WHI-P131. All collected blood samples were heparinized and centrifuged at 7,000×g for 10 minutes in a microcentrifuge to obtain plasma. The plasma samples were stored at −20° C. until analysis. Aliquots of plasma were used for extraction and HPLC analysis. Pharmacokinetic modeling and pharmacokinetic parameter calculations were carried out using the pharmacokinetics software, WinNonline Program, Version 1.1. (Scientific Consulting Inc., Cary, N.C.). Concentration data were weighted by 1/concentration. An appropriate pharmacokinetic model was chosen on the basis of lowest weighted squared residuals, lowest Schwartz criterion (SC), lowest Akaike's Information Criterion (AIC) value, lowest standard errors of the fitted parameters, and dispersion of the residuals. The elimination half-life was estimated by linear regression analysis of the terminal phase of the plasma concentration profile. The area under the concentration time curve (AUC) was calculated by the trapezoidal rule between first (0 h) and last sampling time plus C/k, where C is the concentration of last sampling and k is the elimination rate constant. Systemic clearance (CL) was determined by dividing the dose by the AUC. The apparent volume of distribution at steady-state was calculated using the following equation, Vss=Dose·AUMC/(AUC)^2 Bioavailability (F) was estimated using the equation F(%)=AUCip×Doseiv/AUCiv×Doseip.
In brief, the HPLC system consisted of a Hewlett Packard (HP) series 1100 equipped with an automated electronic degasser, a quaternary pump, an autosampler, an automatic thermostatic column compartment, diode array detector and a computer with a Chemstation software program for data analysis. A 250×4 mm Lichrospher 100, RP-18 (5 μm) analytical column and a 4×4 mm Lichrospher 100, RP-18 (5 μm) guard column were obtained from Hewlett Packard Inc. (San Fernando, Calif.). Acetonitrile/water containing 0.1% of trifluoroacetic acid (TFA) and 0.1% triethylamine (TEA) (28:72, v/v) was used as the mobile phase. The wavelength of detection was set at 340 nm. Peak width, response time and slit were set at >0.03 minutes, 0.5 seconds and 8 nm, respectively. […] For extraction, 7 ml chloroform was then added to the plasma sample, and the mixture was vortexed thoroughly for 3 minutes. Following centrifugation (300×g, 5 minutes), the aqueous layer was frozen using acetone/dry ice and the organic phase was transferred into a clean test tube. The chloroform extracts were dried under a slow steady stream of nitrogen. The residue was reconstituted in 100 μL of methanol: water (9:1) and 50 μL aliquot of this solution was used for HPLC analysis.

BALB/c mice [2] = test: Passive systemic anaphylaxis model; format: in vivo; conditions: pretreated mice
Experimental: FIG. 14B is a photograph showing plasma extravasation during systemic anaphylaxis, evaluated as described in the Examples.
FIG. 14C is a photograph showing results of histopathologic evaluation of mast cell degranulation. Ears were removed 1 hour after the antigen challenge from vehicle treated as well as WHI-P131 treated mice. Formalin-fixed thin sections (3-5 μm) of ears from were stained with Avidin-FITC.
FIG. 4D is a graph showing blood histamine levels of sensitized mice analyzed after antigen challenge. Blood was collected by retro-orbital bleeding and histamine levels were measured by ELISA. Histamine levels are expressed as nM. The histamine levels in the blood of PBS treated mice and IgE/antigen stimulated mice was 493±131 and 7527±2102 nM respectively. The results are the mean±SEM values; n=3.
To induce passive systemic anaphylaxis, BALB/c mice were sensitized with […] DNP-IgE intravenously. At 24 hours DNP-BSA (2 mg) was administered intravenously with 0.5% Evans blue (200 μl). For assessment of vascular leak, animals were sacrificed 30 minutes after the antigen challenge and their foot pads were examined for blue coloration. Histamine levels in plasma were measured 5 minutes after the antigen challenge. […] For histopathologic evaluation of tissue mast cell degranulation, ears of mice were removed 1 hour after the DNP-BSA injection and fixed in 10 percent buffered formalin. Processed thin sections (3-5 μm) were stained with Avidin-FITC (6.25 μg/ml) for 2 hours, washed with PBS to remove unbound dye and then mounted in buffered glycerol, 30 mM triethylenediamine, pH 8.6 (Malaviya et. al., 1994, J. Clin. Invest., 93:1645-1653). In the murine model for antigen induced active anaphylaxis, mice were sensitized with 2 mg BSA in 200 μl aluminum hydroxide gel (Reheis Inc., Berkeley, N.J.). Ten days later anaphylactic shock was induced by the i.v. injection of the animals with 200 μg BSA.

BALB/c mice [3] = test: IgE/antigen-induced active systemic anaphylaxis model; format: in vivo; conditions: BSA-sensitized mice, two doses of 45 mg/kg before challenge; 8 of 15
Experimental: FIG. 14E is a graph showing results of a study of the effect of JAK3 inhibitor WHI-P131 on fatal anaphylaxis in mice. BALB/c mice were sensitized with 100 mg/kg bovine serum albumin in 200 μl of the adjuvant aluminum hydroxide gel (Reheis Inc., Berkeley, N.J.), which favors the production of IgE in response to the presented antigen. Ten days later, mice were treated with two doses of WHI-P131 (45 mg/kg) or vehicle 30 minutes apart and then challenged with an i.v. injection of the 10 mg/kg BSA. Cumulative proportions of mice surviving anaphylaxis-free are shown according to the time after the antigen challenge.
To induce passive systemic anaphylaxis, BALB/c mice were sensitized with […] DNP-IgE intravenously. At 24 hours DNP-BSA (2 mg) was administered intravenously with 0.5% Evans blue (200 μl). For assessment of vascular leak, animals were sacrificed 30 minutes after the antigen challenge and their foot pads were examined for blue coloration. Histamine levels in plasma were measured 5 minutes after the antigen challenge. […] For histopathologic evaluation of tissue mast cell degranulation, ears of mice were removed 1 hour after the DNP-BSA injection and fixed in 10 percent buffered formalin. […]

[4] = test system: mouse bone marrow mast cells; conditions: data not shown

T2 sequence (Q06187 whole entry, species assumed): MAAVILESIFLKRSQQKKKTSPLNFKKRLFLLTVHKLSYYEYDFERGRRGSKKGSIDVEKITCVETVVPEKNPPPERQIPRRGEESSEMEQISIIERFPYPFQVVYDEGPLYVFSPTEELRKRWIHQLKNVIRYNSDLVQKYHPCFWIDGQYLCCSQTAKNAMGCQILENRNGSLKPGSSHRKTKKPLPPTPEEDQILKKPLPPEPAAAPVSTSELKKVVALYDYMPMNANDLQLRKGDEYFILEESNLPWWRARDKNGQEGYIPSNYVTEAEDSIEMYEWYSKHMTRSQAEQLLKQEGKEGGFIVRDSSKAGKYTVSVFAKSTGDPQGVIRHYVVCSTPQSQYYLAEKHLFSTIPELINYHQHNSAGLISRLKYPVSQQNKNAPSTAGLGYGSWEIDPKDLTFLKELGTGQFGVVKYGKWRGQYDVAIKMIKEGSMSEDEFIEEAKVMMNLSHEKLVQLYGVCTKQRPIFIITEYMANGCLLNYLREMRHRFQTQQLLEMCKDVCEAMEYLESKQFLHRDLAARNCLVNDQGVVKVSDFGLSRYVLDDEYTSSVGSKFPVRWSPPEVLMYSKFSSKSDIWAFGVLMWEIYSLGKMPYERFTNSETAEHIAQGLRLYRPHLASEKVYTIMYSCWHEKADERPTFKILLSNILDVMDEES
T1 sequence (P23458 whole entry): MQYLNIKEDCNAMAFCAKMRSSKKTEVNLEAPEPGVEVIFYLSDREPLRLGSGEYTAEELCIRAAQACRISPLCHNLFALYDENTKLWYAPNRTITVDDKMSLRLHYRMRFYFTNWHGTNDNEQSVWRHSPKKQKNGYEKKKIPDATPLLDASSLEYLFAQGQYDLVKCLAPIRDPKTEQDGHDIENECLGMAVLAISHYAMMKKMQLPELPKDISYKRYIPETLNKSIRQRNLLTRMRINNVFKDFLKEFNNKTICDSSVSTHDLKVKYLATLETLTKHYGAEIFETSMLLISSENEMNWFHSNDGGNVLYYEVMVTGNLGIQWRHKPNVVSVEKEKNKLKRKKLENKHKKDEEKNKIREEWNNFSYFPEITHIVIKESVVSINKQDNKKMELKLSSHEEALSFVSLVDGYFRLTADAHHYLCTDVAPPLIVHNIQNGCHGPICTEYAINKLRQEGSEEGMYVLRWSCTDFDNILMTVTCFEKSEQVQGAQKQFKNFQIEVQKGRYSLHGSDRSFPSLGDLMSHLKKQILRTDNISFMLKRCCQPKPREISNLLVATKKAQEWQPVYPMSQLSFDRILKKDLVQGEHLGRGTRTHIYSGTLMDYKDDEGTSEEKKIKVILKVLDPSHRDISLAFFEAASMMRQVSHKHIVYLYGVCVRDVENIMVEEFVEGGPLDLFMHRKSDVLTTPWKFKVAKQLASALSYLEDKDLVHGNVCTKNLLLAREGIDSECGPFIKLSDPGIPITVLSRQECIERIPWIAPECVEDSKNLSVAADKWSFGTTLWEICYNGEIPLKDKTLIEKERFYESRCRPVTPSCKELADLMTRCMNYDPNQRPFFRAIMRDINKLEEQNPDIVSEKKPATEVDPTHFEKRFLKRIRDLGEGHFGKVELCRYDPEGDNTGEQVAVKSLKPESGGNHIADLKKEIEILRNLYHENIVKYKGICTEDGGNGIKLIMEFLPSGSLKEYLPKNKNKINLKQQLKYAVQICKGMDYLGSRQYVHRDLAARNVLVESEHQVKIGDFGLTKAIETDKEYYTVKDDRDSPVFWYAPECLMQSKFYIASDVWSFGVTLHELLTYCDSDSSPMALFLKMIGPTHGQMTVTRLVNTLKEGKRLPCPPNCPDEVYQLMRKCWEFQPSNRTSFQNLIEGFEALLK

With `COc1cc2ncnc(Nc3ccc(O)cc3)c2cc1OC` [WHI-P131, 4-(4′-Hydroxylphenyl)-amino-6,7-dimethoxyquinazoline] the “inhibitory activity against recombinant JAK1” value (recombinant JAK1) was “did not exhibit any detectable inhibitory activity”, the “effect on enzymatic activity of BTK” value (BTK) was “did not affect” and the absorption half-life ([1]; i.p., 12.5 mg/kg) was 6 min. The estimated bioavailability ([1]; i.p., 12.5 mg/kg) was 94.4%, the “time to reach maximum plasma concentration” value ([1]; i.p., 12.5 mg/kg) was 0.17 h and the β-half-life ([1]; i.p., 12.5 mg/kg) was 1.9 h. For the same compound, the Cmax ([1]; i.p.) was 57.7 µM, the β-half-life ([1]; i.v., 12.5 mg/kg) was 2.1 h and the Cmax ([1]; i.v.) was 85.6 µM. For the same compound, the plasma histamine response (BALB/c mice [2]; 5 minutes after antigen challenge) was “substantially reduced”, the “blue coloring of foot pads (plasma exudation)” value (BALB/c mice [2]; 30 min after antigen challenge) was “no significant blue coloring” and the “fluorescence intensity of avidin-FITC stained tissue mast cells (degranulation)” value (BALB/c mice [2]; ears, after IgE/antigen challenge) was “no reduction in fluorescence intensity”. The “mice surviving without any signs of anaphylaxis” value (BALB/c mice [3]) was 53%, the “IgE receptor/FcεRI-mediated release of LTC4” value [4] was “markedly reduced” and the “IgE receptor/FcεRI-mediated release of histamine” value [4] was “markedly reduced”.
